Experimental data reported in publication PMC7179439, “Synthesis and Structure-Activity Relationship Studies of Hydrazide-Hydrazones as Inhibitors of Laccase from Trametes versicolor” (Molecules, 2020).
Values joined by “and” are separate entries in the source; they are usually repeats but may differ in a detail not shown here. Equal entries are not always repeated. Where two headings read alike, the source gives them in different places.

Assays:
[1] = target: laccase from Trametes versicolor; assay: Laccase enzyme inhibition assay with syringaldazine as substrate; format: biochemical; set-up: key to The type of inhibition: a: competitive; b: uncompetitive; c: not determined; d: non-competitive; conditions: for Ki: 25 °C, pH 5.3, syringaldazine substrate, 6.25% v/v organic co-solvent; for The type of inhibition / type of inhibition: Lineweaver-Burk transformation
Description: The activity of laccase was determined using the procedure described by Leonowicz and Grzywnowicz. Basically, a standard reaction mixture contained the enzyme in McIlvaine buffer (1.5 mL, pH 5.3) in the presence or absence of tested compounds (0.1 mL) and substrate – syringaldazine (0.1 mL). Two water-miscible media were tested as suitable co-solvents for hydrazide-hydrazones which are poorly soluble in water. For that purpose, the stability of laccase (40 nM, McIlvaine buffer, pH 5.3) in methanol and DMSO (6.25% v/v) at 25 °C was investigated (see Supplementary Material). The samples containing the enzyme, with a volumetric buffer–co-solvent ratio of 15:1, were withdrawn in different time intervals for 1500 min. A reaction system contained the 1.6 mL of the collected sample and 0.1 mL of syringaldazine (5.9 µM). Laccase activity was determined spectrophotometrically (UV-VIS 1800, Shimadzu, Reinach, Switzerland) by monitoring the changes in absorbance at 525 nm resulted from oxidation of the substrate syringaldazine with an extinction coefficient ε0 = 65000 M^−1·cm^−1 [99]. Kinetic parameters, Km and k3 were determined for two protein concentrations (20 and 40 nM) and with the nine concentrations of syringaldazine (0.59 to 20 µM), using the Michaelis-Menten model, Equation (1):V = Vmax · CS/(Km + CS), k3 = Vmax/CE(1) where Km [µM], k3 [min^–1] – kinetic constants, Vmax – maximal velocity [µM·min^–1], CS – substrate concentration [µM], CE – enzyme concentration [µM].
The parameters of the function were estimated using the nonlinear least square method in Matlab (The Mathworks, R2019a Version 9.6, academic licence). The method was used simultaneously for datasets obtain for different enzyme concertation. The common minimum of error function was found for all considered datasets resulting in one common estimate of each model parameter. The goodness of fit was assessed using the coefficient of determination (R^2); the sum of squared errors (SSE) and root mean squared error (RMSE). The 25 hydrazide-hydrazones, 4-hydroxybenzoic acid (control, 4-HBA), 4-hydroxybenzohydrazide (4a – 4-HBAH), and sodium azide (control) were tested against laccase in the standard reaction mixture. Prior to the substrate addition, the laccase and tested compound were pre-incubated for 10 min at 25 °C. At least three inhibitor concentrations were used in each experiment. All measurements were performed in triplicate. To determine the type of inhibition Lineweaver–Burk transformation was used applying the following equations for competitive (2), uncompetitive (3) and non-competitive model (4). The parameters of these equations were estimated using the linear least square method. 1/V = Km/Vmax · (1 + Ci/Ki) · 1/CS + 1/Vmax(2) 1/V = Km/Vmax · 1/CS + 1/Vmax · (1 + Ci/Ki)(3) 1/V = Km/Vmax · (1 + Ci/Ki) · 1/CS + 1/Vmax · (1 + Ci/Ki)(4) where Km [µM]—Michaelis-Menten constant, Vmax—maximal velocity [µM·min^–1], Ki—inhibition constant [µM], CS—substrate concentration [µM], Ci—inhibitor concentration [µM].

[2] = test system: laccase from Pleurotus eryngii; conditions: cited from earlier work; for Ki: ABTS as substrate, mixed type of inhibition ref 85
[3] = target: laccase from Pleurotus ostreatus; conditions: ABTS as substrate ref 86; cited from earlier work

Row | Structure (SMILES) | melting point | Ki [1] [µM] | The type of inhibition [1] | type of inhibition [1] | further results
1 | O=C(N/N=C/c1cccc(-c2ccccc2)c1O)c1ccc(O)cc1 (hydrate or solvate) [2a, 4-Hydroxy-N’-[(E)-(2-hydroxy-3-phenyl-phenyl)methylidene]benzohydrazide monomethanolate] | 215 to 218 °C |  |  |  | 
2 | O=C(N/N=C/CCc1ccccc1)c1ccc(O)cc1 [1b, 4-Hydroxy-N’-[(E)-3-phenylpropylidene]benzohydrazide] | 243.5 to 244 °C | 1920 ± 163 | b |  | 
3 | O.O=C(N/N=C/c1cccc(O)c1)c1ccc(O)cc1 [1f, 4-Hydroxy-N’-[(E)-(3-hydroxyphenyl)methylidene]benzohydrazide monohydrate] |  | 2400 ± 334 | a |  | 
4 | O=C(N/N=C/c1cccc(-c2ccccc2)c1O)c1ccc(O)cc1 [2a, 4-Hydroxy-N’-[(E)-(2-hydroxy-3-phenyl-phenyl)methylidene]benzohydrazide monomethanolate] |  | 25.3 ± 6.9 | a | competitive | 
5 | COc1ccc(C(=O)N/N=C/c2cccc(-c3ccccc3)c2O)cc1 [2h, 4-Methoxy-N’-[(E)-2-hydroxy-3-phenyl-benzylidene]benzohydrazide] | 240 to 242.5 °C | ≥ 1000 |  |  | 
6 | Cc1cc(/C=N/NC(=O)c2ccc(O)cc2)c(O)c(CO)c1 [3a, 4-Hydroxy-N’-[(E)-2-hydroxy-3-hydroxymethyl-5-methyl-benzylidene]benzohydrazide] | 229 to 230 °C | ≥ 1000 |  |  | 
7 | Cc1cc(CO)cc(/C=N/NC(=O)c2ccc(O)cc2)c1O [3b, 4-Hydroxy-N’-[(E)-(5-hydroxymethyl-3-methyl-2-hydroxyphenyl)methylidene]benzohydrazide] | 266 °C (dec.) | ≥ 1000 |  |  | 
8 | CC(C)(C)c1cc(/C=N/NC(=O)c2ccc(O)cc2)c(O)c(C(C)(C)C)c1 [3c, 4-Hydroxy-N’-[(E)-(3,5-di-tert-butyl-2-hydroxyphenyl)methylidene]benzohydrazide] | 274.5 to 275.5 °C | 17.9 ± 1.3 | b |  | 
9 | Cc1cc(/C=N/NC(=O)c2ccc(O)cc2)c(O)c(C(C)(C)C)c1 [3d, 4-Hydroxy-N’-[(E)-3-tert-butyl-2-hydroxy-5-methylbenzylidene]benzohydrazide] | 261 to 263 °C and 261 to 262 °C | 26.4 ± 3.4 | a | competitive | 
10 | Cc1cc(/C=N/NC(=O)c2cccc(O)c2)c(O)c(C(C)(C)C)c1 [3g, 3-Hydroxy-N’-[(E)-(3-tert-butyl-2-hydroxy-5-methylphenyl)methylidene]benzohydrazide] | 240 to 242.5 °C | 32 ± 8 | d | non-competitive | 
11 | O=C(O)c1ccc(O)cc1 [4-HBA, 4-hydroxybenzoic acid, reference compound] |  | ≥ 2400 |  |  | inhibitory potency towards laccase [1]: no inhibitory potency
12 | COc1ccc(C(=O)NN)cc1 [4b, reference compound] |  | ≥ 2400 |  |  | inhibitory potency towards laccase [1]: no inhibitory potency
13 | [N-]=[N+]=[N-].[Na+] [NaN3, sodium azide] |  | 2.72 ± 0.3 | d | non-competitive | type of inhibition ([2]; ABTS as substrate ref 85): mixed type of inhibition; Ki ([2]; read-out: Kic): 17.6 µM; Ki ([2]; read-out: Kiu): 10.6 µM; Ki [3]: 16.5 µM; type of inhibition [3]: non-competitive

Continued, in another order:

Row | melting point | Ki [1] [µM] | The type of inhibition [1] | type of inhibition [1] | Structure (SMILES) | further results
14 | 210 to 212 °C |  |  |  | COc1cccc(/C=N/NC(=O)c2ccc(O)cc2)c1 (hydrate or solvate) [1i, 4-Hydroxy-N’-[(E)-(3-methoxyphenyl)methylidene]benzohydrazide] | 
15 |  | 1470 ± 58 | a |  | O=C(N/N=C/c1ccccc1)c1ccc(O)cc1 [1a, 4-Hydroxy-N’-[(E)-benzylidene]benzohydrazide] | 
16 |  | 251 ± 26 | a | competitive | Cc1ccc(/C=N/NC(=O)c2ccc(O)cc2)cc1 [1c, 4-Hydroxy-N’-[(E)-(4-methylphenyl)methylidene]benzohydrazide monomethanolate] | 
17 | 251 °C (dec.) | ≥ 2400 |  |  | O=C(N/N=C/c1ccccc1S(=O)(=O)[O-])c1ccc(O)cc1.[Na+] [1d, Sodium 2-{(E)-[2-(4-hydroxybenzoyl)hydrazinylidene]methyl}benzenesulfonate] | 
18 |  | 674 ± 10 | a | competitive | O=C(N/N=C/c1ccccc1O)c1ccc(O)cc1 [1e, 4-Hydroxy-N’-[(E)-(2-hydroxyphenyl)methylidene]benzohydrazide] | 
19 |  | 638 ± 35 | b |  | O=C(N/N=C/c1ccc(O)cc1)c1ccc(O)cc1 [1g, 4-Hydroxy-N’-[(E)-(4-hydroxyphenyl)methylidene]benzohydrazide] | 
20 |  | 1060 ± 18 | a |  | COc1ccccc1/C=N/NC(=O)c1ccc(O)cc1 [1h, 4-Hydroxy-N’-[(E)-(2-methoxyphenyl)methylidene]benzohydrazide] | 
21 |  | 416 ± 1.5 | a | competitive | COc1cccc(/C=N/NC(=O)c2ccc(O)cc2)c1 [1i, 4-Hydroxy-N’-[(E)-(3-methoxyphenyl)methylidene]benzohydrazide] | 
22 | 240 to 242 °C | 24 ± 5.9 | a | competitive | CC(C)(C)c1cccc(/C=N/NC(=O)c2ccc(O)cc2)c1O [2b, 4-Hydroxy-N’-[(E)-(3-tert-butyl-2-hydroxyphenyl)methylidene]benzohydrazide] | 
23 | 294 °C (dec.) | 939 ± 30 | b | uncompetitive | O=C(N/N=C/c1ccc(O)cc1O)c1ccc(O)cc1 [2c, 4-Hydroxy-N’-[(E)-(2,4-dihydroxyphenyl)methylidene]benzohydrazide] | inhibitory potency towards laccase [1]: practically inactive
24 | 276 to 278 °C | ≥ 1000 |  |  | O=C(N/N=C/c1cc(Br)ccc1O)c1ccc(O)cc1 [2d, 4-Hydroxy-N’-[(E)-(5-bromo-2-hydroxyphenyl)methylidene]benzohydrazide] | 
25 | 256.5 to 257.5 °C | ≥ 1000 |  |  | COc1cccc(O)c1/C=N/NC(=O)c1ccc(O)cc1 [2e, 4-Hydroxy-N’-[(E)-(6-methoxy-2-hydroxyphenyl)methylidene]benzohydrazide] | 
26 | 214.5 to 216 °C | ≥ 1000 |  |  | COc1cccc(OC)c1/C=N/NC(=O)c1ccc(O)cc1 [2f, 4-Hydroxy-N’-[(E)-(2,6-dimethoxyphenyl)methylidene]benzohydrazide] | inhibitory potency towards laccase [1]: practically inactive
27 | 218.5 to 220 °C | 251 ± 38 | a | competitive | COc1cc(/C=N/NC(=O)c2ccc(O)cc2)ccc1O [2g, 4-Hydroxy-N’-[(E)-(4-hydroxy-3-methoxyphenyl)methylidene]benzohydrazide] | 
28 | 258.5 to 260.5 °C | ≥ 1000 |  |  | Cc1ccc(C(C)C)c(O)c1/C=N/NC(=O)c1ccc(O)cc1 [3e, 4-Hydroxy-N’-[(E)-(2-hydroxy-3-isopropyl-6-methylphenyl)methylidene]benzohydrazide] | 
29 | 231.5 to 234.5 °C | ≥ 1000 |  |  | COc1cc(O)c(/C=N/NC(=O)c2ccc(O)cc2)c(OC)c1 [3f, 4-Hydroxy-N’-[(E)-(2-hydroxy-4,6-dimethoxyphenyl)methylidene]benzohydrazide] | 
